# Values quoted from earlier work in patent US6559183B1, “Nano-emulsion of 5-aminolevulinic acid” (ASAT AG Applied Science & Technology, priority 1998, dated 2003).
# Conditions: high concentrations required for clinical application, neutral to basic pH range, 25 h
compound,measurement,value
"NCC(=O)CCC(=O)O [aminolevulinic acid, 5-aminolevulinic acid]",stability in aqueous solutions,unstable
